Laboratory results as given in patent publication US6541486B1, “Bis-benzimidazole compounds and analogs thereof for inhibiting cell death” (Elan Pharma International Ltd., priority 1999, dated 2003).

Experiments:
[1] = system: OGD cells (retinal ganglion cells); experiment: Increase in survival of OGD cells at fixed concentrations (similar assay); assay type: cell-based, rat; design: key: +: up to 50% increase; ++: 50%-100% increase; +++: >100% increase; —: negligible or no increase
[2] = system: Oxygen/Glucose Deprived RGCs (retinal ganglion cells); experiment: Protection of oxygen/glucose deprived (OGD) retinal ganglion cells, EC50; conditions: overall judgement
Protocol: Each compound was added to control cells and to cells deprived of oxygen and glucose for the time period from 30 minutes prior to OGD, during OGD, and for 24 and 48 hours after OGD.
RGCs from postnatal day 8 (P8) Sprague-Dawley rats were purified as previously described (Barres et al., 1988; Meyer-Franke et al., 1995). Purified retinal ganglion cells were plated onto tissue culture plastic precoated with poly-D-lysine and merosin, and cultured in serum-free Neurobasal medium (Gibco) containing various supplements.
Approximately 5,000 purified RGCs were cultured in 96-well plates (Falcon), precoated with poly-D-lysine (PDL, 70 kD, 10 mg/ml; Sigma) and merosin (2 mg/ml; Gibco). The RGCs were cultured in serum-free Neurobasal medium (Brewer et al., 1993; Gibco) containing Sato-Bottenstein and B27 (Gibco) supplement, insulin (Sigma, 5 mg/ml), brain-derived neurotrophic factor (BDNF, 25 ng/ml; Preprotech), ciliary neurotrophic factor (CNTF, 20 ng/ml; Preprotech) and forskolin (10 mM, Sigma). The percentage of surviving cells was assessed at 3, 7, and 14 days by the MTT assay.
Retinal ganglion cells were grown in 96-well plates for 5 days in serum-free medium as described above. On the sixth day cells were washed three times in a salt solution, e.g. Earle's balanced salt solution (EBSS, Gibco), containing glucose for control cells, and lacking glucose for test cells (oxygen/glucose-deprived cells). Control cells were further incubated in a 5% CO2 incubator while OGD cells were deprived of oxygen in an anaerobic chamber (for 3 hours). Test compounds were added to control cells and OGD cells for the time period from 30 minutes prior to OGD, during OGD, and for 24 and 48 hours after OGD.
After 3 hours OGD, control and test cells were transferred to growth medium with glucose and cultured an additional 48 hours in a 5% CO2 incubator, followed by a determination of cell viability using MTT, propidium iodide and annexin assays.
For the cell viability assay, MTT was added to culture and incubated at 37° C. for 1 hr. […] Viable and dead cells are counted by bright field microscopy at various times, e.g. 24, 48, or 72 hours after oxygen/glucose and/or growth factor deprivation. All values are reported as the mean (average) +/− the standard error of the mean (SEM) for at least three replicate cultures.

Row | SMILES | Percent Increase in Survival over OGD Control Cells ([1]; Concn 0.01 μM) | Percent Increase in Survival over OGD Control Cells ([1]; Concn 0.1 μM) | Percent Increase in Survival over OGD Control Cells ([1]; Concn 10 μM) | Percent Increase in Survival over OGD Control Cells ([1]; Concn .1 μM) | Percent Increase in Survival over OGD Control Cells ([1]; Concn 1 μM) | Effectiveness in protecting OGD RGCs (in words, from Tables 5 and 6) [2] | Percent Increase in Survival over OGD Control Cells ([1]; Concn 0.001 μM)
1 | c1ccc2[nH]c(Cc3nc4ccccc4[nH]3)nc2c1 [SNX 857] | + (up to 50% increase) | +++ (>100% increase) | +++ (>100% increase) | ++ (50%-100% increase) |  |  | 
2 | O=[N+]([O-])c1ccc2[nH]c(Cc3nc4ccc([N+](=O)[O-])cc4[nH]3)nc2c1 [SNX 897, 5,5′-dinitro*] | ++ (50%-100% increase) | ++ (50%-100% increase) |  |  | ++ (50%-100% increase) |  | 
3 | Nc1ccc2[nH]c(Cc3nc4ccc(N)cc4[nH]3)nc2c1 [SNX 898, 5,5′-diamino*] | + (up to 50% increase) | + (up to 50% increase) | — |  | + (up to 50% increase) |  | 
4 | Clc1ccc2[nH]c(Cc3nc4ccccc4[nH]3)nc2c1 [SNX 899, 5-chloro*] | + (up to 50% increase) | ++ (50%-100% increase) | + (up to 50% increase) | ++ (50%-100% increase) | ++ (50%-100% increase) |  | 
5 | O=[N+]([O-])c1cccc2[nH]c(Cc3nc4ccccc4[nH]3)nc12 [SNX 900, 2-(1H-benzimidazol-2-ylmethyl)4-nitro-1H-benzimidazole] | ++ (50%-100% increase) | +++ (>100% increase) | + (up to 50% increase) | ++ (50%-100% increase) |  | more effective overall than the unsubstituted compound | 
6 | O=[N+]([O-])c1cccc2[nH]c(Cc3nc4c([N+](=O)[O-])cccc4[nH]3)nc12 [SNX 901, 4,4′-dinitro*] | ++ (50%-100% increase) | ++ (50%-100% increase) | +++ (>100% increase) | +++ (>100% increase) |  | more effective overall than the unsubstituted compound | 
7 | Nc1cccc2[nH]c(Cc3nc4c(N)cccc4[nH]3)nc12 [SNX 903, 4,4′-diamino*] | +++ (>100% increase) | +++ (>100% increase) | ++ (50%-100% increase) | +++ (>100% increase) |  | more effective overall than the unsubstituted compound | 
8 | Oc1cccc2[nH]c(Cc3nc4c(O)cccc4[nH]3)nc12 [SNX 909, 4,4′-dihydroxyl*] | + (up to 50% increase) | ++ (50%-100% increase) | + (up to 50% increase) | +++ (>100% increase) |  | more effective overall than the unsubstituted compound | 
9 | Cn1c(Cc2nc3ccccc3n2C)nc2ccccc21 [SNX 910, 1,1′-dimethyl*] | ++ (50%-100% increase) | ++ (50%-100% increase) | + (up to 50% increase) | +++ (>100% increase) |  |  | 
10 | c1cnc2[nH]c(Cc3nc4cccnc4[nH]3)nc2c1 [SNX 911, 2,2′-methylenebis(4-azabenzimidazole)] |  |  |  |  |  | very effective | 
11 | Nc1cccc2[nH]c(Cc3nc4cc(Cl)ccc4[nH]3)nc12 [SNX 923, 2-[(5-Chloro-1H-benzimidazol-2-yl)methyl]-1H-benzimidazol-4-amine] | +++ (>100% increase) | +++ (>100% increase) | +++ (>100% increase) |  | +++ (>100% increase) | more effective overall than the unsubstituted compound | +++ (>100% increase)
12 | CC(c1nc2ccccc2[nH]1)c1nc2ccccc2[nH]1 [SNX 925, 2,2′-ethylidenebisbenzimidazole] | +++ (>100% increase) | +++ (>100% increase) | +++ (>100% increase) |  | +++ (>100% increase) | very effective | ++ (50%-100% increase)
13 | Fc1cccc2[nH]c(Cc3nc4c(F)cccc4[nH]3)nc12 [SNX 930, 4,4′-difluoro*] | +++ (>100% increase) | + (up to 50% increase) | ++ (50%-100% increase) |  | ++ (50%-100% increase) | more effective overall than the unsubstituted compound | + (up to 50% increase)
14 | N#Cc1ccc2[nH]c(Cc3nc4ccc(C#N)cc4[nH]3)nc2c1 [SNX 931, 5,5′-dicyano*] | + (up to 50% increase) | + (up to 50% increase) | ++ (50%-100% increase) |  | — |  | —
15 | Cc1nc(-c2nc(C)c(C)[nH]2)[nH]c1C [SNX 939, 2,2′-bis(4,5-dimethylimidazole)] |  |  |  |  |  | very effective | 
16 | NC(c1ncc[nH]1)c1ncc[nH]1 [SNX 949, 2,2′-(aminomethylene)bisimidazole] |  |  |  |  |  | very effective | 
17 | O=C(c1ncc[nH]1)c1ncc[nH]1 [SNX 951, di(imidazol-2-yl)methanone] |  |  |  |  |  | very effective | 
18 | c1ccc2[nH]c(CC3=NCCN3)nc2c1 [SNX 978, 2-(4,5-dihydroimidazol-2-yl)methyl benzimidazole] |  |  |  |  |  | very effective | 
19 | c1ccc(CN2CCN=C2Cc2nc3ccccc3[nH]2)cc1 [SNX 979, 2-(1-benzyl-4,5-dihydroimidazol-2-yl)methyl benzimidazole] |  |  |  |  |  | very effective | 
20 | CN1CC[N+](C)=C1Cc1nc2ccccc2[nH]1 [SNX 980, 2-(1,3-Dimethyl-4,5-dihydro-1H-imidazol-2-ylmethyl)-1H-benzimidazole] |  |  |  |  |  | very effective | 
21 | CN1CCN=C1Cc1nc2ccccc2[nH]1 [SNX 1019, 2-(1-methyl-4,5-dihydroimidazol-2-yl)methyl benzimidazole] |  |  |  |  |  | very effective | 
22 | CC1(C)CN=C(Cc2nc3ccccc3[nH]2)N1 [SNX 1020, 2-(5,5-Dimethyl-4,5-dihydro-1H-imidazol-2-ylmethyl)-1H-benzimidazole] |  |  |  |  |  | very effective | 
23 | CN1CCN=C1CCc1nc2ccccc2n1C [SNX 1771] |  |  |  |  |  | very effective | 
24 | c1ccc2[nH]c(CC3=NCCCN3)nc2c1 [SNX 1818, 2-(3,4,5,6-tetrahydropyrimidin-2-yl)methyl benzimidazole] |  |  |  |  |  | very effective | 
25 | c1ccc2[nH]c(CC3=NCCCCN3)nc2c1 [SNX 1819, 2-(4,5,6,7-tetrahydro-1,3-diazepin-2-yl)methyl benzimidazole] |  |  |  |  |  | very effective | 
